This is an account of results in patent publication US4889871A, “Alkoxy-substituted dihydrobenzopyran-2-carboxylate derivatives” (G. D. Searle & Co., priority 1988, dated 1989).

The test system of this experiment is human neutrophils. Description: Human neutrophil degranulation assay (LTB4-induced, myeloperoxidase release). Conditions: Table 1, LTB4 (5×10^-8 M). The format is cell-based. As for the experimental part:
Neutrophils were purified from venous blood of normal human donors using standard techniques of dextran sedimentation, centrifugation on Ficoll-paque® (Pharmacia) or Histopaque® sterile solution (Sigma) and hypotonic lysis of erythrocytes (Boyum, A., Isolation of Leukocytes From Human Blood: Further Observations. Scand. J. Lab. Clin. Invest., 21 (Suppl. 97): 31, 1968). The purity of isolated neutrophils was >95%.
Neutrophil degranulation was determined by measuring the release of myeloperoxidase activity into the incubation medium. Neutrophils (3×10^6) in 1 ml HBSS solution were preincubated with cytochalasin B (5 μg) at 37° C. for 5 minutes, followed by preincubation with test compounds for 7 minutes. Neutrophils were then incubated for 2 to 20 minutes with either LTB4 (5×10^-8 M) or the chemotactic peptide f-met-leu-phe (5×10^-6 M) to induce degranulation. Following incubation, samples were centrifuged and myeloperoxidase was extracted from the cell pellets by sonication in phosphate buffer containing 0.4% Triton X-100. Triton X-100 was also added to the supernatants to a concentration of 0.4%. The supernatants and the pellet - extracts were then assayed spectrophotometrically for myeloperoxidase activity by determining the rate of decomposition of H2 O2 with o-dianisidine as hydrogen donor as described by Renlund, et al. (Renlund, D. G., MacFarlane, J. L., Christensen, R. D., Lynch, R. E., and Rothstein, G., A Quantitative And Sensitive Method For Measurement Of Myeloperoxidase, Clinical Research 28:75A, 1980). Myeloperoxidase activity released into the supernatant was expressed as the percent of the average total activity (pellet plus supernatant).

As usually defined, the IC50 is the midpoint of a concentration-inhibition curve. Read a low IC50 as higher potency.

With `CCCc1c(OCCCOc2ccc(C(C)=O)c(OC)c2CCC)ccc2c1OC(C(=O)O)CC2` (stereo not shown) [Example 1, 7-[3-(4-acetyl-3-methoxy-2-propylphenoxy)propoxy]-3,4-dihydro-8-propyl-2H-1-benzopyran-2-carboxylic acid], 1.5 µM corresponded to half-maximal inhibition (IC50).
